Experimental data as given in paper PMC11369432, “Study on the uptake of Gastrodin in the liver” (Heliyon, 2024).
Where “and” joins values, the source holds several entries; their conditions need not be identical. Identical values can stand only once. Counter-ions that a name gives are not always drawn.

Columns and labels:
OCTs [1] = test: Check of the OCTs inhibitor in rats with metformin hydrochloride as substrate; type: in vivo
Text: (§1) Selecting suitable substrates and inhibitors of OATPs and OCTs is crucial for the experiment. Therefore, our team also used OATPs and OCTs inhibitors. Based on the relevant literature, metformin hydrochloride was selected as the substrate of OCTs, and sodium sulfobromophthalide (BSP) was selected as the substrate of OATPs. […] Most of the previous studies used RIF as an inhibitor of OATPs and epinephrine as an inhibitor of OCTs. We detected drug concentration in blood samples and in the liver of rats. The concentration of metformin hydrochloride was detected by HPLC, and BSP was measured by enzyme-linked immunosorbent assay (ELISA).

OATPs [2] = test: Check of the OATPs inhibitor in rats with BSP as substrate; type: in vivo; settings: dose of 30 mg kg^−1, ELISA
Text: as §1

[3] = Gastrodin plasma and liver concentrations and Kp in rats, control group (no inhibitor); type: in vivo, Sprague-Dawley (SD) rats
Text: (§2) The transporters involved in liver transport mainly include organic anion transport peptides (Oatps) and organic cation transporters (Octs), and these two transporters are most expressed in the liver. Therefore, this study chose Oatps and Octs as the research objects. Transport proteins affect drug efficacy and toxicity, the liver is the main organ for the metabolism of substances. […] Using the method of rats in vivo, and choose organic anion transfer peptide Oatps and organic cation transporter Octs inhibitors for the probe, after the transporters are suppressed, intravenous drip Gastrodine, drug concentrations reach homeostasis in blood drug concentration, drug absorption rate and elimination rate balance, illustrate the liver intake transporters saturated. Using HPLC determination of drug concentration in liver and blood at this time the ratio of the Kp (Kp = Css/Css drug concentration of liver blood drug concentration), and under normal circumstances (i.e., without giving inhibitors) compared to Kp, if Kp decrescent, namely that the drug transporters of the substrate. This study explore the intrinsic relationship between the uptake of Gastrodin in rat liver and the organic anion transport peptide Oatps and organic cation transporter Octs, thus preliminarily elucidating the molecular mechanism of Gastrodin uptake in the liver, provide theoretical basis for the safety of clinical combination therapy [[10], [11], [12]].
(§3) The use of experimental animals was approved by the Ethics Committee of Southwest University (Chongqing, China). We strictly followed the National and Institutional guidelines for animal protection and welfare. In total, 18 adult male Sprague-Dawley (SD) rats (SPF, weight: 150 ± 20g) were obtained from the Center of Experimental Animals, Sichuan Province People's Hospital. The rats were kept at room temperature (25 °C) with free access to food and water. They were allowed to adapt to the new environment for one week before starting induction and treatment. Following acclimatization, the experimental rats were randomly divided into three groups (n = 6) as follows: Control group (treated with Gastrodin), ADR group (treated with Gastrodin and adrenalone), and RIF group (treated with Gastrodin and rifampicin).
(§4) To clarify the role of hepatic transport proteins, the concentration of Gastrodin chosen for this experiment was 569 mg kg^−1 (converted from the concentration in mice: rat dose (mg·kg^−1) = mouse dose (mg·kg^−1)/1.44), based on the results of previous studies. An equal dose of Gastrodin was injected before intravenous drip as a loading dose, to ensure that the steady-state blood concentration (Css) of Gastrodin was reached and the transporter protein was saturated by 300 min of intravenous drip. Then, the volume of Gastrodin was computed according to the following formula: drop volume = drop speed (4 μL h^−1 g^−1) × time × weight.
(§5) Gastrodin solution: 1138.9 mg of Gastrodin extract was added to a 10 mL volumetric flask. Physiological saline was added and diluted to prepare a solution with a concentration of 113.89 mg mL^−1. Then, the solution was frozen and stored (administered at 1 mL·200g ^−1 i.v.).
The rats were fasted for 12 h before the experiment. They had free access to water. The rats were regularly weighed before the initiation of the experiment. The control group first received Gastrodin solution (569 mg kg^−1) through the caudal vein as a loading dose, followed by the caudal injection of a Gastrodin solution (569 mg kg^−1) at a rate of 4 μg h^−1·g^−1. Each rat of the RIF group was given rifampicin 2 mL·200 g^−1 via oral gavage and 1h later 569 mg kg^−1 of Gastrodin was injected. Likewise, the ADR group was injected with adrenalone (0.5 mL·200 g^−1) via the caudal vein, and 0.5 h later 569 mg kg^−1 of Gastrodin was injected. […]

[4] = parameters: method as in doi:10.4103/pm.pm_307_19; settings: mice, different doses; conforms to a two-compartment model; cited from earlier work
OATPs [5] = test: Hepatic uptake of Gastrodin in rats after the OATPs inhibitor rifampicin (RIF group); type: in vivo, Sprague-Dawley (SD) rats
Text: as §2, §3, §4, §5
Rifampicin (RIF) solution: 90 mg of rifampicin was precisely weighed. Then, 30 mL saline was added to prepare 3 mg mL^−1 solution (administered at 2 mL·200 g ^−1 i.g.).
(§6) The rats were fasted for 12 h before the experiment. They had free access to water. The rats were regularly weighed before the initiation of the experiment. The control group first received Gastrodin solution (569 mg kg^−1) through the caudal vein as a loading dose, followed by the caudal injection of a Gastrodin solution (569 mg kg^−1) at a rate of 4 μg h^−1·g^−1. Each rat of the RIF group was given rifampicin 2 mL·200 g^−1 via oral gavage and 1h later 569 mg kg^−1 of Gastrodin was injected. […]

[6] = Stability of Gastrodin solution (room temperature, repeated freeze-thaw); type: physicochemical; settings: Gastrodin solution stored at −20 °C
Protocol: To verify whether the sample processing and detection methods were stable, we examined both their room temperature stability and their repeated freeze-thaw stability.
Three solutions containing 50 mg mL^−1, 100 mg mL^1, and 500 mg mL^−1 of Gastrodin were first prepared and stored at room temperature. This was then measured every 6 h. Finally, the RSD was calculated, which was examined for its room temperature stability.
Three solutions of the same concentration were prepared as described above and tested immediately after preparation. They were then stored at −20 °C for 21 h, removed to allow thawing, and left at room temperature for 3 h before assay. The test was continued at a low temperature and the RSD was calculated after repeating the assay three times to investigate its repeated freeze-thaw stability.

OCTs [7] = test: Hepatic uptake of Gastrodin in rats after the OCTs inhibitor adrenalone (ADR group); type: in vivo, Sprague-Dawley (SD) rats
Text: as §2, §3, §4, §5
Adrenalone (ADR) solution: 64 mg of […] was weighed precisely and prepared at 8 mg mL^−1 concentration (administered at 0.5 mL·200 g^−1 i.v.) using 30 % PEG400 as solvent.
as §6

For `CN(C)C(=N)N=C(N)N` [metformin hydrochloride], the “Hepatic concentrations of the drug after OCTs inhibitor” value (OCTs [1]; rats, OCTs inhibitor given) was “significant reduction”.
For `CO[C@H]1/C=C/O[C@@]2(C)Oc3c(C)c(O)c4c(O)c(c(/C=N/N5CCN(C)CC5)c(O)c4c3C2=O)NC(=O)/C(C)=C\C=C\[C@H](C)[C@H](O)[C@@H](C)[C@@H](O)[C@@H](C)[C@H](OC(C)=O)[C@@H]1C` [RIF, rifampicin], the “Hepatic transport of OATPs in rats” value (OATPs [2]) was “inhibited”.
In the case of `CNCC(=O)c1ccc(O)c(O)c1` [ADR, adrenalone], the “Hepatic transportation of OCTs in rats” value (OCTs [1]; dose of 20 mg kg^−1, substrate metformin hydrochloride, HPLC) is reported as “inhibited”.
With `OCc1ccc(O[C@@H]2O[C@H](CO)[C@@H](O)[C@H](O)[C@H]2O)cc1` [GAS, hydroxyl methyl benzene - beta - D - pyran glucoside] the “KP (liver / blood concentration)” value ([3]; Control group, single rats, 300 min) was 0.2918 and 0.2172 and 0.0618 and 0.3204 and 0.0919, the “Plasma concentration of GAS, 90min” value ([3]; Control group, single rats, Gastrodin 569 mg kg^−1 i.v. loading dose plus i.v. drip, 90 min) was 418.6414 µg/mL and 490.4070 µg/mL and 858.0713 µg/mL and 839.0300 µg/mL and 374.1060 µg/mL and 714.8180 µg/mL and the “Plasma concentration of GAS, 180min” value ([3]; Control group, single rats, Gastrodin 569 mg kg^−1 i.v. loading dose plus i.v. drip, 180 min) was 296.4502 µg/mL and 450.2900 µg/mL and 241.1238 µg/mL and 473.1890 µg/mL and 388.0036 µg/mL and 943.8820 µg/mL. The “Plasma concentration of GAS, 300min” value ([3]; Control group, single rats, Gastrodin 569 mg kg^−1 i.v. loading dose plus i.v. drip, 300 min) was 160.2300 µg/mL and 435.3740 µg/mL and 690.0752 µg/mL and 482.2634 µg/mL and 537.2563 µg/mL and 961.3480 µg/mL, the “Liver concentration of GAS” value ([3]; Control group, single rats, liver taken at 300 min) was 46.7539 µg/mL and 94.5472 µg/mL and 42.6760 µg/mL and 154.5100 µg/mL and 49.3480 µg/mL and 165.2782 µg/mL and the Kp at 300 min ([3]; male, Sprague-Dawley, rat, liver / blood, intravenous, 569 mg kg^−1, Control group, n = 6) was 0.14 ± 0.127. For the same compound, the Pharmacokinetic profile [4] was “non-linear”, the “KP (liver / blood concentration)” value (OATPs [5]; RIF group, single rats, 300 min) was 0.0695 and 0.1237 and 0.0037 and 0.0044 and 0.0041 and 0.0042 and the “Liver concentration of GAS” value (OATPs [5]; RIF group, single rats, liver taken at 300 min) was 143.4890 µg/mL and 54.8940 µg/mL and 33.3675 µg/mL and 48.7120 µg/mL and 41.0071 µg/mL and 101.5434 µg/mL. The “Plasma concentration of GAS, 90min” value (OATPs [5]; RIF group, single rats, rifampicin 2 mL·200 g^−1 i.g. 1 h before Gastrodin 569 mg kg^−1, 90 min) was 30828.4900 µg/mL and 1684.7620 µg/mL and 8505.0480 µg/mL and 15559.1500 µg/mL and 79163.4800 µg/mL and 26044.6400 µg/mL, the “Plasma concentration of GAS, 180min” value (OATPs [5]; RIF group, single rats, rifampicin i.g. 1 h before Gastrodin 569 mg kg^−1, 180 min) was 13840.5600 µg/mL and 8435.3490 µg/mL and 24589.4100 µg/mL and 8312.9910 µg/mL and 20131.4400 µg/mL and 4501.0340 µg/mL and the “Plasma concentration of GAS, 300min” value (OATPs [5]; RIF group, single rats, rifampicin i.g. 1 h before Gastrodin 569 mg kg^−1, 300 min) was 2063.3640 µg/mL and 8969.1250 µg/mL and 10985.5800 µg/mL and 9971.0380 µg/mL and 23912.4400 µg/mL. The “Substrate of OATPs” value (OATPs [5]; concluded from lower KP after OATPs inhibitor, rat in vivo) was “likely substrate”, the Kp at 300 min (OATPs [5]; male, Sprague-Dawley, rat, liver / blood, intravenous, RIF group, n = 6, *p < 0.05 vs Control) was 0.035 ± 0.0508 and the concentration at 300 min (OATPs [5]; male, Sprague-Dawley, rat, plasma, intravenous, RIF group, single rats, rifampicin i.g. 1 h before Gastrodin 569 mg kg^−1, 300 min, read-out: Plasma concentration of GAS, 300min) was 444 µg/mL. The “Storage time with good stability” value [6] was “at least 3 days”, the “KP (liver / blood concentration)” value (OCTs [7]; ADR group, single rats, 300 min) was 0.0645 and 0.0324 and 0.0463 and 0.0716 and 0.0447 and 0.1550 and the “Plasma concentration of GAS, 90min” value (OCTs [7]; ADR group, single rats, adrenalone 0.5 mL·200 g^−1 i.v. 0.5 h before Gastrodin 569 mg kg^−1, 90 min) was 617.7201 µg/mL and 10576.3600 µg/mL and 1294.1160 µg/mL and 1093.5800 µg/mL and 3877.7610 µg/mL. For the same compound, the “Plasma concentration of GAS, 180min” value (OCTs [7]; ADR group, single rats, adrenalone i.v. 0.5 h before Gastrodin 569 mg kg^−1, 180 min) was 650.1415 µg/mL and 3246.9130 µg/mL and 497.0489 µg/mL and 1215.3470 µg/mL and 1883.7120 µg/mL, the “Plasma concentration of GAS, 300min” value (OCTs [7]; ADR group, single rats, adrenalone i.v. 0.5 h before Gastrodin 569 mg kg^−1, 300 min) was 2255.8310 µg/mL and 2303.3090 µg/mL and 659.0208 µg/mL and 643.2905 µg/mL and 1871.4590 µg/mL and the “Liver concentration of GAS” value (OCTs [7]; ADR group, single rats, liver taken at 300 min) was 25.4541 µg/mL and 73.1891 µg/mL and 106.5988 µg/mL and 47.2096 µg/mL and 28.7519 µg/mL and 290.1262 µg/mL. The “Substrate of OCTs” value (OCTs [7]; concluded from lower KP after OCTs inhibitor, rat in vivo) was “likely substrate”, the Kp at 300 min (OCTs [7]; male, Sprague-Dawley, rat, liver / blood, intravenous, ADR group, n = 6, *p < 0.05 vs Control) was 0.0691 ± 0.0444 and the concentration at 90 min (OCTs [7]; male, Sprague-Dawley, rat, plasma, iv, ADR group, single rats, adrenalone 0.5 mL·200 g^−1 i.v. 0.5 h before Gastrodin 569 mg kg^−1, 90 min, read-out: Plasma concentration of GAS, 90min) was 762 µg/mL. The concentration at 180 min (OCTs [7]; male, Sprague-Dawley, rat, plasma, iv, ADR group, single rats, adrenalone i.v. 0.5 h before Gastrodin 569 mg kg^−1, 180 min, read-out: Plasma concentration of GAS, 180min) was 445 µg/mL and the concentration at 300 min (OCTs [7]; male, Sprague-Dawley, rat, plasma, iv, ADR group, single rats, adrenalone i.v. 0.5 h before Gastrodin 569 mg kg^−1, 300 min, read-out: Plasma concentration of GAS, 300min) was 394 µg/mL.
